Test results as given in ChEMBL document CHEMBL1250443, “Microarray-based method for monitoring yeast overexpression strains reveals small-molecule targets in TOR pathway” (Nat Chem Biol, 2006).

Columns and labels:
[1] = Inhibition of TOR signaling in wild-type Saccharomyces cerevisiae transformed with overexpression plasmids assessed as increased YOL157C gene expression by microarray
[2] = Inhibition of TOR signaling in wild-type Saccharomyces cerevisiae transformed with overexpression plasmids assessed as decreased REH1 gene expression by microarray
[3] = Inhibition of TOR signaling in wild-type Saccharomyces cerevisiae transformed with overexpression plasmids assessed as increased SSE1 gene expression by microarray
[4] = Inhibition of TOR signaling in wild-type Saccharomyces cerevisiae transformed with overexpression plasmids assessed as decreased ELP2 gene expression by microarray
Saccharomyces cerevisiae [5] = experiment: Increase of FMP38 gene expression in wild-type Saccharomyces cerevisiae transformed with overexpression plasmids by microarray; format: functional
[6] = Inhibition of TOR signaling in wild-type Saccharomyces cerevisiae transformed with overexpression plasmids assessed as decreased AZR1 gene expression by microarray
[7] = Inhibition of TOR signaling in wild-type Saccharomyces cerevisiae transformed with overexpression plasmids assessed as decreased PUT4 gene expression by microarray
[8] = Inhibition of TOR signaling in wild-type Saccharomyces cerevisiae transformed with overexpression plasmids assessed as decreased OLE1 gene expression by microarray
[9] = Inhibition of TOR signaling in wild-type Saccharomyces cerevisiae transformed with overexpression plasmids assessed as increased TIF2 gene expression by microarray
Saccharomyces cerevisiae [10] = experiment: Increase of GUF1 gene expression in wild-type Saccharomyces cerevisiae transformed with overexpression plasmids by microarray; format: functional
[11] = Inhibition of TOR signaling in wild-type Saccharomyces cerevisiae transformed with overexpression plasmids assessed as decreased HPA2 gene expression by microarray
[12] = Inhibition of TOR signaling in wild-type Saccharomyces cerevisiae transformed with overexpression plasmids assessed as decreased HES1 gene expression by microarray
[13] = Inhibition of TOR signaling in wild-type Saccharomyces cerevisiae transformed with overexpression plasmids assessed as increased LIN1 gene expression by microarray
[14] = Inhibition of TOR signaling in wild-type Saccharomyces cerevisiae transformed with overexpression plasmids assessed as decreased PTC4 gene expression by microarray
[15] = Inhibition of TOR signaling in wild-type Saccharomyces cerevisiae transformed with overexpression plasmids assessed as increased FBP1 gene expression by microarray
[16] = Inhibition of TOR signaling in wild-type Saccharomyces cerevisiae transformed with overexpression plasmids assessed as increased WHI4 gene expression by microarray
[17] = Inhibition of TOR signaling in wild-type Saccharomyces cerevisiae transformed with overexpression plasmids assessed as decreased FRE5 gene expression by microarray
[18] = Inhibition of TOR signaling in wild-type Saccharomyces cerevisiae transformed with overexpression plasmids assessed as decreased HMI1 gene expression by microarray
[19] = Inhibition of TOR signaling in wild-type Saccharomyces cerevisiae transformed with overexpression plasmids assessed as decreased CAJ1 gene expression by microarray
[20] = Inhibition of TOR signaling in wild-type Saccharomyces cerevisiae transformed with overexpression plasmids assessed as increased YLR297W gene expression by microarray
[21] = Inhibition of TOR signaling in wild-type Saccharomyces cerevisiae transformed with overexpression plasmids assessed as increased HCA4 gene expression by microarray
[22] = Inhibition of TOR signaling in wild-type Saccharomyces cerevisiae transformed with overexpression plasmids assessed as increased YEL070W gene expression by microarray
[23] = Inhibition of TOR signaling in wild-type Saccharomyces cerevisiae transformed with overexpression plasmids assessed as decreased ERO1 gene expression by microarray
[24] = Inhibition of TOR signaling in wild-type Saccharomyces cerevisiae transformed with overexpression plasmids assessed as increased BRE1 gene expression by microarray
[25] = Inhibition of TOR signaling in wild-type Saccharomyces cerevisiae transformed with overexpression plasmids assessed as increased NAM7 gene expression by microarray
[26] = Inhibition of TOR signaling in wild-type Saccharomyces cerevisiae transformed with overexpression plasmids assessed as decreased HOL1 gene expression by microarray
[27] = Inhibition of TOR signaling in wild-type Saccharomyces cerevisiae transformed with overexpression plasmids assessed as decreased SET4 gene expression by microarray
[28] = Inhibition of TOR signaling in wild-type Saccharomyces cerevisiae transformed with overexpression plasmids assessed as decreased CDC42 gene expression by microarray
[29] = Inhibition of TOR signaling in wild-type Saccharomyces cerevisiae transformed with overexpression plasmids assessed as increased VID22 gene expression by microarray
[30] = Inhibition of TOR signaling in wild-type Saccharomyces cerevisiae transformed with overexpression plasmids assessed as decreased APL4 gene expression by microarray
[31] = Inhibition of TOR signaling in wild-type Saccharomyces cerevisiae transformed with overexpression plasmids assessed as decreased BUD8 gene expression by microarray
Saccharomyces cerevisiae [32] = experiment: Decrease of YJL051W gene expression in wild-type Saccharomyces cerevisiae transformed with overexpression plasmids by microarray; format: functional
[33] = Inhibition of TOR signaling in wild-type Saccharomyces cerevisiae transformed with overexpression plasmids assessed as increased PZF1 gene expression by microarray
[34] = Inhibition of TOR signaling in wild-type Saccharomyces cerevisiae transformed with overexpression plasmids assessed as increased CDC54 gene expression by microarray
[35] = Inhibition of TOR signaling in wild-type Saccharomyces cerevisiae transformed with overexpression plasmids assessed as decreased PEX7 gene expression by microarray
[36] = Inhibition of TOR signaling in wild-type Saccharomyces cerevisiae transformed with overexpression plasmids assessed as increased DSL1 gene expression by microarray
[37] = Inhibition of TOR signaling in wild-type Saccharomyces cerevisiae transformed with overexpression plasmids assessed as increased SAS10 gene expression by microarray
Saccharomyces cerevisiae [38] = experiment: Decrease of YKR75C gene expression in wild-type Saccharomyces cerevisiae transformed with overexpression plasmids by microarray; format: functional
[39] = Inhibition of TOR signaling in wild-type Saccharomyces cerevisiae transformed with overexpression plasmids assessed as decreased YPT11 gene expression by microarray
[40] = Inhibition of TOR signaling in wild-type Saccharomyces cerevisiae transformed with overexpression plasmids assessed as increased YCL049C gene expression by microarray
[41] = Inhibition of TOR signaling in wild-type Saccharomyces cerevisiae transformed with overexpression plasmids assessed as increased SRP72 gene expression by microarray
[42] = Inhibition of TOR signaling in wild-type Saccharomyces cerevisiae transformed with overexpression plasmids assessed as decreased GIP3 gene expression by microarray
[43] = Inhibition of TOR signaling in wild-type Saccharomyces cerevisiae transformed with overexpression plasmids assessed as decreased SUE1 gene expression by microarray
[44] = Inhibition of TOR signaling in wild-type Saccharomyces cerevisiae transformed with overexpression plasmids assessed as decreased YDL186W gene expression by microarray
[45] = Inhibition of TOR signaling in wild-type Saccharomyces cerevisiae transformed with overexpression plasmids assessed as decreased YKL059C gene expression by microarray

CO[C@H]1C[C@@H]2CC[C@@H](C)[C@@](O)(O2)C(=O)C(=O)N2CCCC[C@H]2C(=O)O[C@H]([C@H](C)C[C@@H]2CC[C@@H](O)[C@H](OC)C2)CC(=O)[C@H](C)/C=C(\C)[C@@H](O)[C@@H](OC)C(=O)[C@H](C)C[C@H](C)/C=C/C=C/C=C/1C [SIROLIMUS]
fold change (FC) [1]: 7.1
fold change (FC) [2]: -2.2
fold change (FC) [3]: 11.4
fold change (FC) [4]: -8.1
fold change (FC) (Saccharomyces cerevisiae [5]): -3.2
fold change (FC) [6]: -3.1
fold change (FC) [7]: -3.1
fold change (FC) [8]: -3.2
fold change (FC) [9]: 2.6
fold change (FC) (Saccharomyces cerevisiae [10]): -3.1
fold change (FC) [11]: -2.1
fold change (FC) [12]: -3.1
fold change (FC) [13]: 2.5
fold change (FC) [14]: -4
fold change (FC) [15]: 2.1
fold change (FC) [16]: 3.4
fold change (FC) [17]: -8.1
fold change (FC) [18]: -2.3
fold change (FC) [19]: -5.6
fold change (FC) [20]: 3.6
fold change (FC) [21]: 2.9
fold change (FC) [22]: 3
fold change (FC) [23]: -2.3
fold change (FC) [24]: 4.4
fold change (FC) [25]: 6.4
fold change (FC) [26]: -4.5
fold change (FC) [27]: -2.2
fold change (FC) [28]: -2
fold change (FC) [29]: 2.3
fold change (FC) [30]: -2.7
fold change (FC) [31]: -6.4
fold change (FC) (Saccharomyces cerevisiae [32]): -2.5
fold change (FC) [33]: 2.1
fold change (FC) [34]: 4.5
fold change (FC) [35]: -2.8
fold change (FC) [36]: 2.4
fold change (FC) [37]: 2.3
fold change (FC) (Saccharomyces cerevisiae [38]): -2.5
fold change (FC) [39]: -3.1
fold change (FC) [40]: 2.1
fold change (FC) [41]: 3.4
fold change (FC) [42]: -2.3
fold change (FC) [43]: -2
fold change (FC) [44]: -3.3
fold change (FC) [45]: -2.3
